We go through 7 compounds from PMC5602538, “Assessment of the Drug Interaction Potential of Unconjugated and GalNAc3-Conjugated 2′-MOE-ASOs” (Molecular Therapy. Nucleic Acids, 2017).

Data set [1] deals with BCRP. As to conditions: Ko143 1 μM, 2 μM prazosin.
Data set [2] deals with T1, CYP2C8 (Homo sapiens, UniProt P10632).
T1 sequence (P10632 1-490): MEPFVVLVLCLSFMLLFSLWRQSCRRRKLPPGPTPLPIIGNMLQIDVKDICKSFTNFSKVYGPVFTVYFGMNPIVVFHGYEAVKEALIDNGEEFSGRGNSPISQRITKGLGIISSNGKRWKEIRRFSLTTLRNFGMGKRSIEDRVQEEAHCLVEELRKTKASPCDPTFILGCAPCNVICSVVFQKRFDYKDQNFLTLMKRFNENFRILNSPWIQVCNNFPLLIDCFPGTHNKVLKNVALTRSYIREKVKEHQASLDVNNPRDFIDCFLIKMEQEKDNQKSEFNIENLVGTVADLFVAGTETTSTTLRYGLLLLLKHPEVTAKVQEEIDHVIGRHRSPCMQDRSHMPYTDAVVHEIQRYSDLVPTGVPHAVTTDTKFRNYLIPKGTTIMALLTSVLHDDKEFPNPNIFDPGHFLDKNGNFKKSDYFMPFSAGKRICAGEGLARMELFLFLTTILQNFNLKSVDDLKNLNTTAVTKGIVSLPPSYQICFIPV
Particulars: hepatocytes.
Description: Preincubations were performed in 50 μL of Williams’ Medium E with 2 mM salicylamide. The salicylamide was included to reduce possible phase II conjugation to the precursor phase I metabolites. […] Human hepatocytes (pooled from 5 donors) were thawed and prepared according to the vendor’s protocol. […] Incubations were carried out at 37°C with 5% CO2. The incubation time was 45 min for phenacetin, diclofenac, dextromethorphan, midazolam, bupropion, chlorzoxazone, and testosterone and 90 min for paclitaxel and (S)-mephenytoin. The reactions were stopped by adding 200 μL of ice-cold acetonitrile (can) with tolbutamide (100 ng/mL) as the internal standard to 100 μL of hepatocyte suspension (1:2, v/v). The 96-well plate was then vortexed at 1,700 rpm for 3 min and centrifuged at 3,500 rpm for 10 min at 20°C. The supernatants were analyzed using liquid chromatography-tandem MS (LC-MS/MS).

For data set [3], the system named is CYP1A2. Kind of data set: CYP1A2 enzyme activity induction in plated human hepatocytes. As to conditions: human, probe phenacetin, 100 μM. On the procedure: (§1) Upon receipt, sandwich-cultured cryopreserved human hepatocytes (with Matrigel) plated on collagen-coated 24-well plates were inspected under a microscope for general morphology and viability. Fresh culture medium (OptiCulture Hepatocyte Media) was added to each plate that passed the visual inspection. The plates were then placed in an incubator set to 37°C with 5% carbon dioxide (CO2) for overnight acclimation. […] During this time, cells in parallel wells were also treated with 50.0 μM omeprazole (inducer of CYP1A2), 1,000 μM phenobarbital (inducer of CYP2B6), or 10.0 μM rifampicin (inducer of CYP3A4) in triplicate, respectively.
(§2) The plates were then incubated at 37°C with 5% CO2 for 60 min. […] Aliquots of the supernatants were analyzed by LC-MS/MS for the formation of acetaminophen, hydroxyl-bupropion, or hydroxyl-midazolam as markers for enzyme activity of CYP1A2, CYP2B6, and CYP3A4, respectively.
(§3) The activity of each CYP enzyme was measured by comparing the peak area ratio of the corresponding product to the peak area ratio of the internal standard. The fold induction was calculated by dividing the peak area ratio of each individual well from the treatment group by the mean of the peak area ratios obtained from the vehicle control wells. […] The ΔCƬ was calculated as follows: ΔCƬ = CƬ (CYP) − CƬ (GAPDH). […] The ΔΔCƬ was calculated as follows: ΔΔCƬ = Δ CƬ (Treatment) − Δ CƬ (Vehicle). […]

Data set [4] has as its system CYP1A2 mRNA. Kind of data set: in vitro. Particulars: human. On the procedure: as §1
(§4) After collection of the supernatant for catalytic analysis, the remaining cells were washed and lysed with QIAGEN Buffer RLT from the QIAGEN RNeasy Kit. […]
(§5) The activity of each CYP enzyme was measured by comparing the peak area ratio of the corresponding product to the peak area ratio of the internal standard. The fold induction was calculated by dividing the peak area ratio of each individual well from the treatment group by the mean of the peak area ratios obtained from the vehicle control wells. […] The ΔCƬ was calculated as follows: ΔCƬ = CƬ (CYP) − CƬ (GAPDH). […] The ΔΔCƬ was calculated as follows: ΔΔCƬ = Δ CƬ (Treatment) − Δ CƬ (Vehicle). The fold induction of the target CYP was calculated using the following equation: Fold=2^-ΔΔCT.

In data set [5] the test system is CYP2B6. Description: CYP2B6 enzyme activity induction in plated human hepatocytes. Particulars: human. On the procedure: as §1, §2, §3
Data set [6] has as its system CYP2B6 mRNA. Kind of data set: CYP2B6 mRNA induction in plated human hepatocytes. As to conditions: human. The procedure:
as §1, §4, §5

The subject of data set [7] is T2, OAT3.
T2 construct: expressed in transfected cells; host or cells: MDCK-II
Description: OAT3 inhibition study in MDCK cells. Particulars: MDCK-II cell monolayer expressing OAT3, probe [3H]-p-aminohippurate; probenecid 100 μM, 10 μM p-aminohippurate; read-out: % inhibition of OAT3-mediated transport of p-aminohippurate, reference inhibitor. Format: in vitro ADME. On the procedure: A 96-well cell culture plate containing a monolayer of MDCK-II cells grown on a permeable support and a corresponding receiver tray was used. The basolateral compartment of the culture plate and wells were washed with warm HBSS three times, with wells of the culture plate serving as the apical compartment. The wash was aspirated by adding 150 μL of 37°C HBSS to both compartments. […] The pre-incubation buffer from both compartments was aspirated and 150 μL of the following was added to the basal compartment. […] OATP1B1, 2 μM [^3H]-estradiol-17 β-D-glucuronide; and OATP1B3, 2 μM [^3H]-cholecystokinin octapeptide (CCK-8). […] Plates were incubated at 37°C with orbital shaking at 60 rpm for 5 min. Both sides of the permeable support were washed four times with ice-cold PBS and 60 μL of cell extraction solution was added to each well. Plates were agitated for 15 min at 120 rpm, after which a 30-μL sample of the extract was collected. […] Test article concentrations, including control samples, were evaluated by an LC-MS method. Signal to noise for probe substrates was calculated by dividing the uptake of the probe substrate in transporter-expressing cells by the uptake of probe substrate in control cells not expressing the transporter of interest.

For data set [8], the system named is T3, OCT1.
T3 construct: expressed in transfected cells; host or cells: MDCK-II
Description: OCT1 inhibition study in MDCK cells. Type of data set: in vitro ADME. As to conditions: MDCK-II cell monolayer expressing OCT1, probe [3H]-MPP+, 2 μM; read-out: % inhibition of OCT1-mediated transport of MPP+, reference inhibitor. The procedure: (§6) A 96-well cell culture plate containing a monolayer of MDCK-II cells grown on a permeable support and a corresponding receiver tray was used. The basolateral compartment of the culture plate and wells were washed with warm HBSS three times, with wells of the culture plate serving as the apical compartment. The wash was aspirated by adding 150 μL of 37°C HBSS to both compartments. Plates were incubated at 37°C with orbital shaking at 60 rpm for 15 min for OAT1, OAT3, OCT1, OCT2, OATP1B1, and OATP1B3 (±5 min). The pre-incubation buffer from both compartments was aspirated and 150 μL of the following was added to the basal compartment. […] Test article concentrations, including control samples, were evaluated by an LC-MS method.
(§7) Signal to noise for probe substrates was calculated by dividing the uptake of the probe substrate in transporter-expressing cells by the uptake of probe substrate in control cells not expressing the transporter of interest. Percent inhibition was calculated by dividing the net-transporter-mediated substrate uptake in the presence of the test article or the reference inhibitor by the net-transporter-mediated substrate uptake in the absence of the inhibitor according to the equation: %inhibition=100−(100×(transporter-mediateduptake)withinhibitor/(transporter-mediateduptake)withoutinhibitor).

Data set [9] relates to T4, OCT2.
T4 construct: expressed in transfected cells; host or cells: MDCK-II
Kind of data set: OCT2 inhibition study in MDCK cells. As to conditions: MDCK-II cell monolayer expressing OCT2, probe [14C]-metformin, 10 μM; read-out: % inhibition of OCT2-mediated transport of metformin, reference inhibitor. Type of data set: in vitro ADME. On the procedure:
as §6, §7

In data set [10] the test system is T5, OATP1B1.
T5 construct: expressed in transfected cells; host or cells: MDCK-II
Description: OATP1B1 inhibition study in MDCK cells. Format: in vitro ADME. As to conditions: MDCK-II cell monolayer expressing OATP1B1, probe [3H]-estradiol-17β-D-glucuronide; rifampicin 100 μM, 2 μM substrate; read-out: % inhibition of OATP1B1-mediated transport of estradiol-17β-D-glucuronide, reference inhibitor. On the procedure:
as §6, §7

The test system of data set [11] is T6, OATP1B3.
T6 construct: expressed in transfected cells; host or cells: MDCK-II
Kind of data set: OATP1B3 inhibition study in MDCK cells. Particulars: MDCK-II cell monolayer expressing OATP1B3, probe [3H]-cholecystokinin octapeptide (CCK-8); rifampicin 100 μM, 2 μM CCK-8; read-out: % inhibition of OATP1B3-mediated transport of CCK-8, reference inhibitor. Format: in vitro ADME. The procedure:
A 96-well cell culture plate containing a monolayer of MDCK-II cells grown on a permeable support and a corresponding receiver tray was used. The basolateral compartment of the culture plate and wells were washed with warm HBSS three times, with wells of the culture plate serving as the apical compartment. The wash was aspirated by adding 150 μL of 37°C HBSS to both compartments. Plates were incubated at 37°C with orbital shaking at 60 rpm for 15 min for OAT1, OAT3, OCT1, OCT2, OATP1B1, and OATP1B3 (±5 min). The pre-incubation buffer from both compartments was aspirated and 150 μL of the following was added to the basal compartment. […] Samples containing probe substrate were added to 200 μL of scintillation fluid and counted on a 1450 Microbeta (PerkinElmer), whereas samples containing the test article were kept frozen. Test article concentrations, including control samples, were evaluated by an LC-MS method.
Signal to noise for probe substrates was calculated by dividing the uptake of the probe substrate in transporter-expressing cells by the uptake of probe substrate in control cells not expressing the transporter of interest. […]

Each structure is given as a SMILES string.

In the case of `COc1ccc2c3c([nH]c2c1)[C@H](CC(C)C)N1C(=O)[C@H](CCC(=O)OC(C)(C)C)NC(=O)[C@@H]1C3` [Ko143], the “% inhibition of BCRP-mediated transport of prazosin, reference inhibitor” value in data set [1] is 90.4 ± 1.89%. The IC50 is the concentration that inhibits the measured activity by half. High values mean weaker potency, low ones greater potency. `Cc1ccc(C)c(OCCCC(C)(C)C(=O)O[C@@H]2O[C@H](C(=O)O)[C@@H](O)[C@H](O)[C@H]2O)c1` [gemfibrozil glucuronide, reference compound] gave an IC50 in data set [2] of 0.96 µM. The fold induction is the ratio of treated to control signal. Turning to `COc1ccc2[nH]c([S+]([O-])Cc3ncc(C)c(OC)c3C)nc2c1` (centres unmarked) [omeprazole, reference compound], the fold induction at 72 h, 50 μM in data set [3] was 50.6 ± 3.78; in data set [4] it was 45.7 ± 4.51. Take `CCC1(c2ccccc2)C(=O)NC(=O)NC1=O` [phenobarbital, reference compound]: the results for the fold induction at 72 h, 1000 μM in data set [5] and in data set [6] were 5.03 ± 1.06 and 9.83 ± 0.992, respectively.

In general, inhibition refers to how much of the control response was suppressed. Take `CCCN(CCC)S(=O)(=O)c1ccc(C(=O)O)cc1` [probenecid, reference compound]: the inhibition at 5 min, 100 μM in data set [7] is at most 98.3%. For the compound `C=C[C@H]1C[N@@]2CC[C@H]1C[C@@H]2[C@@H](O)c1ccnc2ccc(OC)cc12` [quinidine], the inhibition at 5 min, 1000 μM came to 91.2 ± 1.57% in [8] and 98.5 ± 1.34% in data set [9].

`CO[C@H]1/C=C/O[C@@]2(C)Oc3c(C)c(O)c4c(O)c(c(/C=N/N5CCN(C)CC5)c(O)c4c3C2=O)NC(=O)/C(C)=C\C=C\[C@H](C)[C@H](O)[C@@H](C)[C@@H](O)[C@@H](C)[C@H](OC(C)=O)[C@@H]1C` [rifampicin, reference compound]: the inhibition at 5 min, 100 μM in [10] came to 98.8 ± 1.09%; in [11] it was 99 ± 0.955%.
